The values below come from patent publication US9744186B2 (priority 2012, dated 2017).

One data set has as its system Huh7 cells. As to the kind of experiment: in vitro. To be noted: control Huh7 cells; 48 h drug exposure; MTS. Here is the method: Plating Cells: The Huh7 cell line was passaged when it was at about 70% confluency. The cells were counted using a hemocytometer, followed by dilution of the cells to 0.5×10^5 cells per mL in DMEM+10% FBS. The cells were plated at 100 μL (5,000 cells) per well in a clear 96-well plate. The cells were allowed to attach for 24 hours at 37° C.
Treating the cells: The media (DMEM media without phenol red+2% FBS media) was pre-warmed to 37° C. […] This provided a final DMSO concentration of 0.5%. The 100 mM stock of 3,5-dichlorobenzoic acid was diluted in DMEM without phenol red+2% FBS to a concentration of 0.5 mM. The working 0.5 mM diluted test drugs were serially diluted in DMEM without phenol red+2% FBS+0.5% DMSO in order to maintain a constant concentration of DMSO in each condition. The 96-well plate was removed from the 37° C. incubator, and the media on the plate was replaced with media containing diluted test drug.
MTS Assay: The reagents from CellTiter 96 kit (Promega Corporation, Madison, Wis.) were thawed at room temperature in the dark for 1 h. The 96-well plate was removed from the 37° C. incubator at 48 h after drug treatment. 20 μL of the combined MTS/PMS reagent to each well of the plate, mixed, and the plate returned to 37° C. The absorbance of each well at 490 nm and 650 nm was determined using the Flexstation 3 microplate reader in endpoint mode every hour for 3 h. The solutions in the wells were mixed prior to each reading. The data were fit to the Emax model: y=(Emax*x)/(TC50+x), where Emax is the maximum inhibition and TC50 is the inhibitory dose 50%. Alternatively, the data can be fit to the Emax sigmoidal model: y=(Emax*x^slope)/(TC50^slope+x^slope), where slope is the Hill Slope.

For the next data set, the system named is HCV luciferase replicon. As to the kind of experiment: HCV luciferase replicon inhibition in the presence of carboxylesterase inhibitors (benzil or BNPP). To be noted: Hepatitis C virus, 48 h. It is filed as cell-based. How it is done:
The cells were counted using a hemocytometer, and then diluted to 1×10^5 cells/mL in DMEM with 10% FBS and […] G415. 100 μL of the cells (10,000 cells) were plated per well in a white-walled 96-well plate according to the template on the following page.
Treating the cells: Media (DMEM with 2% FBS) was pre-warmed to 37° C. Stock solutions (100 mM) of Benzil and BNPP were diluted in DMEM with 2% FBS to 100 μM. […] The cells were returned to 37° C. for 1 h. […] The 1.0 mM dilution of GCB or GTB in DMEM+2% FBS+100 μM Benzil or BNPP was serially diluted in DMEM with 2% FBS, 0.5% DMSO, 100 μM benzil or BNPP. At the end of the 1 h incubation, the 96-well plate with cells plated as above was removed from the 37° C. incubator, and 50 μL media diluted test drug and 100 μM of benzil or BNPP was added to each well. The plates were gently rocked to mix the media. Also included were conditions with inhibitors alone (DMEM+2% FBS+0.5% DMSO+100 μM benzil or BNPP) and media alone (DMEM+2% FBS+0.5% DMSO) in triplicate. The plates were returned to 37° C. for 48 h.
In general terms: Replicon systems follow genome replication, usually without infectious particles.

Where two headings read alike, the source gives them in different places. Bounds are passed on as bounds.

With `O=C(Nc1ccn([C@@H]2O[C@H](CO)[C@@H](O)C2(F)F)c(=O)n1)c1cc(Cl)cc(Cl)c1` [GCB, N^4-(3,5-Dichlorobenzoyl)gemcitabine], in the data set on Huh7 cells, the “TC50” value was over 100 µM.

For the molecule `COc1cc(C(=O)Nc2ccn([C@@H]3O[C@H](CO)[C@@H](O)C3(F)F)c(=O)n2)cc(OC)c1OC` [GTB, N^4-(3,4,5-Trimethoxybenzoyl)gemcitabine], the concentration for half-maximal inhibition (IC50) in the data set with HCV luciferase replicon (100 μM BNPP, read-out: IC50 (nM) +BNPP) was determined as 81 nM; in the data set with HCV luciferase replicon (100 μM benzil, read-out: IC50 (nM) +Benzil) it was 125 nM; with HCV luciferase replicon (no carboxylesterase inhibitor, read-out: IC50 (nM) −Benzil −BNPP) it was 49 nM.

A word on the IC50: it is the concentration that gives 50% inhibition.
